This is an account of results in patent US9029405B2, “5-(biphenyl-4-yl)-3-phenyl-1,2,4-oxadiazolyl derivatives as ligands on the sphingosine 1-phosphate(SIP)receptors” (Merck Serono S.A., priority 2010, dated 2015).

Structures are written as SMILES. Counter-ions that a name gives are not always drawn. Like-named read-outs stand apart in the source and are kept apart here.

Assay [1] deals with T1, S1P1 (Homo sapiens, UniProt P21453). As to the kind of experiment: Receptor binding assay, [33P]sphingosine 1-phosphate competition, membranes of CHO cells expressing S1P1. The procedure:
(§1) Membranes were prepared from CHO cells expressing S1P1 or S1P3 for use in ligand binding studies. Cells were suspended in 50 mM TRIS, pH 7.4, 2 mM EDTA, 250 mM Sucrose (buffer A) and 1× Complete protease inhibitor cocktail (Roche), and disrupted at 4° C. by N2 decompression using a cell disruption bomb (Parr Instrument). Following centrifugation at 1000 RPM for 10 min at 4° C., the supernatant was diluted (2×) in buffer A and centrifuged again at 19000 RPM for 75 min at 4° C. The pellet was then suspended in 10 mM HEPES, pH 7.4, 1 mM EDTA, 250 mM Sucrose (Buffer B), and 1× Complete EDTA-free protease inhibitor cocktail and homogenized using a potter. Membranes were flash frozen in liquid N2 and stored at −80° C.
(§2) [33P]sphingosine 1-phosphate (3000 Ci/mmol; American Radiolabeled Chemicals, Inc.) was added to test compounds in 20% DMSO by competition. Membranes and WGA SPA beads (GE Healthcare) were added to give a final volume of 100 μl in 96-well plates or 50 μl in 384-well plates with assay concentrations of 30 pM or 15 pM [33P]sphingosine 1-phosphate (respectively for S1P1 or S1P3), 50 mM HEPES, pH 7.5, 5 mM MgCl2, 100 mM NaCl, 0.4% fatty acid-free BSA, 1-5 μg/well of proteins in 96-well plates vs 0.6-1 μg/well of proteins in 384-well plates and 100 μg/well of WGA SPA beads in 96-well plates vs 75 μg/well of WGA SPA beads in 384-well plates. Binding was performed for 60 min at RT on a shaker and bound radioactivity was measured on a PerkinElmer 1450 MicroBeta counter. Triplicate samples were averaged and normalized as percentage of inhibition relative to total binding (only DMSO in well) and non specific binding (1000-fold excess of unlabeled S1P). Binding data were analyzed using the GraphPad Prism program or Genedata software.
(§3) The “potency” or the “activity” of the compounds is determined by the Ki values as evaluated in one of the above described binding assay, 96 or 384 well plates.
Target sequence in this assay (P21453 whole entry, species assumed): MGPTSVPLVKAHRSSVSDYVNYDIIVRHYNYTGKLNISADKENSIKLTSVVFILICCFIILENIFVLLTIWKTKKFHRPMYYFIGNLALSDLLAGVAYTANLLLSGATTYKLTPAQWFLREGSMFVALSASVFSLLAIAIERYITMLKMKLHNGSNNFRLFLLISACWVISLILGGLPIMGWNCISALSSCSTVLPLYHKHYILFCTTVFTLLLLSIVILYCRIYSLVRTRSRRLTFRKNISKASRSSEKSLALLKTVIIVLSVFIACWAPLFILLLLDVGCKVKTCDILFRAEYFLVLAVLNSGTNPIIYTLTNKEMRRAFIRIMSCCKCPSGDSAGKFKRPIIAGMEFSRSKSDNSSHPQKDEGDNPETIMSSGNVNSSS

The next assay concerns the target S1P3 (Homo sapiens, UniProt Q99500). As to the kind of experiment: Receptor binding assay, [33P]sphingosine 1-phosphate competition, membranes of CHO cells expressing S1P3. The procedure:
as §1, §2, §3

The target in assay [2] is T1, S1P1. As to the kind of experiment: S1P1 internalization assay in S1P1-U2OS cells (cell imaging). It counts as cell-based. Also noted: host or cells: U2OS (human bone osteosarcoma epithelial cells). To be noted: U2OS cells expressing S1P1-EGFP, 384-well format. The procedure: Cellular Functional Assays: Internalization of Sphinqosine-1-phosphate Receptor 1 (S1P1) in a Human Cell Line (U2OS) in a 384-Well Format Using a Cell Imaging Analysis.
The S1P1 internalization assay was performed in 384 well plates (Corning 384 black with clear bottom 3712) using S1P1-U2OS cells from BioImage (C039A), a human epithelial cell line (Human Bone Osteosarcoma Epithelial Cells). These cells expressed the human S1P1 Receptor fused to the green fluorescent protein (EGFP). A standard CMV promoter (cytomegalovirus promoter) controls the expression of S1P1-EGFP and continuous expression was maintained by addition of geneticin to the culture medium.
S1P1 Receptor desensitization induced the internalization of the membrane-localized S1P-EGFP fusion protein to endosomes, which can be monitored by cell imaging analysis.
The cells are plated in low serum medium (Dulbecco's Modified Eagle Medium (DMEM) with Glutamax-1 and high glucose, 1% Penicillin/Streptomycin, 1% Fetal Calf Serum (FCS), 0.5 mg/ml Geneticin) overnight.
The next day, S1P1-U2OS cells are incubated in 20 μl serum free medium (DMEM with Glutamax-1 and high glucose, 0.1% of fatty-acid free Bovin Serum Albumin (BSA), 10 mM, N′-2-Hydroxyethylpiperazine-N′-2 ethanesulphonic acid (HEPES) 1M) for 2 hours at 37° C./5% CO2. The cells are then treated with 4 μl compounds/agonists (6×/3% DMSO) for a total volume of 24 μl, and plates are incubated for 1 hour at 37° C./5% CO2.
S1P1-U2OS cells are fixed with 25 μl Paraformaldehyde 8% and stained with Hoechst 33345 dye (1:1000) for 20 minutes.
They were then washed 3 times with Phosphate Buffered Saline (PBS) and plates are sealed. The internalization of the receptor S1P1-EGFP is measured on Cellomics by calculating the “spot count per object” (“object” corresponds to nuclear and “spot” corresponds to S1P1-EGFP receptor). Internalization data were observed thanks to vHCS View and analyzed using Genedata® software.
Target sequence in this assay (P21453 whole entry): as the sequence (P21453 whole entry, species assumed) above

Where [3] appears, read: 96 well plate, read-out: S1P1 Binding Ki [M] (96 well plate).
[4] abbreviates: 384 well plate, read-out: S1P1 Binding Ki [M] (384 well plate).
[5] abbreviates: 96 well plate, read-out: S1P3 Binding Ki [M] (96 well plate).
Setting [6] is: 384 well plate, read-out: S1P3 Binding Ki [M] (384 well plate).

Chain of S1P3 (Q99500 whole entry, species assumed): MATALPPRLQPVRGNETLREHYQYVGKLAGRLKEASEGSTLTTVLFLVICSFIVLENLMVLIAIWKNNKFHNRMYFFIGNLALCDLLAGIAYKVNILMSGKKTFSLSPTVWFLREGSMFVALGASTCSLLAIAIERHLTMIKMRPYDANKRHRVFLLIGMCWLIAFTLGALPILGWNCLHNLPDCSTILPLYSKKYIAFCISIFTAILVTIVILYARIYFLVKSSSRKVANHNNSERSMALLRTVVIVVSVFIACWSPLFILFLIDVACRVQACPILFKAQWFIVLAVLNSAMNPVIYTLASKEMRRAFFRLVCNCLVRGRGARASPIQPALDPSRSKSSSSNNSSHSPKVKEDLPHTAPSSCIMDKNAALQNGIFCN

The term Ki denotes a dissociation constant, usually derived from enzyme kinetics or from competition with a known ligand. Broadly, the EC50 is the concentration giving half of the maximal effect. The low end stands for an effect from little substance, the high end for a need for much substance. On to `Cc1cc(-c2nc(-c3ccc([C@@H](C)N[C@H](C)C(=O)O)cc3)no2)ccc1-c1ccccc1C(F)(F)F` [Example 6, N-[(1R)-1-(4-{5-[2-methyl-2′-(trifluoromethyl)biphenyl-4-yl]-1,2,4-oxadiazol-3-yl}phenyl)ethyl]-D-alanine, hydrochloride salt], for which the Ki is 9.92e-10 M on S1P1 [1] (setting [3]), 2.18e-09 M at S1P1 [1] (setting [4]), above 2e-05 M at S1P3 (setting [5]) and above 2e-05 M on S1P3 (setting [6]). Besides, a half-maximal response on S1P1 [2] (EC50) required 0.00757 µM.
For `Cc1cc(-c2nc(-c3ccc([C@@H](C)NCC(=O)O)cc3)no2)ccc1-c1ccccc1C(F)F` [Example 7, N-[(1R)-1-(4-{5-[2′-(difluoromethyl)-2-methylbiphenyl-4-yl]-1,2,4-oxadiazol-3-yl}phenyl)ethyl]glycine, hydrochloride salt], the Ki is 3.7e-10 M at S1P1 [1] (setting [3]), 1.64e-09 M on S1P1 [1] (setting [4]), above 2e-05 M at S1P3 (setting [5]) and 5.24e-06 M on S1P3 (setting [6]). At S1P1 [2], this compound displayed an EC50 of 0.0179 µM.
For the compound `Cc1cc(-c2nc(-c3ccc([C@@H](C)NCC(=O)O)cc3)no2)ccc1-c1ccccc1C(F)(F)F` [Example 8, N-[(1R)-1-(4-{5-[2-methyl-2′-(trifluoromethyl)biphenyl-4-yl]-1,2,4-oxadiazol-3-yl}phenyl)ethyl]glycine, hydrochloride salt], the inhibitory constant (Ki) was 9.13e-10 M on S1P1 [1] (setting [3]), 3.68e-09 M at S1P1 [1] (setting [4]), above 2e-05 M on S1P3 (setting [5]) and 6.38e-06 M on S1P3 (setting [6]). At S1P1 [2], this compound came in with an EC50 of 0.0269 µM.
In the case of `COCc1cc(-c2nc(-c3ccc([C@@H](C)NCC(=O)O)cc3)no2)ccc1-c1ccccc1C` [Example 9, N-[(1R)-1-(4-{5-[2-(methoxymethyl)-2′-methylbiphenyl-4-yl]-1,2,4-oxadiazol-3-yl}phenyl)ethyl]glycine, hydrochloride salt], the Ki on S1P1 [1] (setting [3]) was 1.75e-10 M; on S1P1 [1] (setting [4]), 1.11e-09 M; at S1P3 (setting [5]), 7.7e-07 M; at S1P3 (setting [6]) it was 4.94e-07 M. On S1P1 [2], this compound came in with an EC50 of 0.00434 µM.
Turning to `CC[C@@H](N[C@H](C)c1ccc(-c2noc(-c3ccc(-c4ccccc4C)c(C(F)(F)F)c3)n2)cc1)C(=O)O` [Example 11, (2R)-2-{[(1R)-1-(4-{5-[2′-methyl-2-(trifluoromethyl)biphenyl-4-yl]-1,2,4-oxadiazol-3-yl}phenyl)ethyl]amino}butanoic acid, hydrochloride salt], the Ki on S1P1 [1] (setting [4]) turned out to be 3.96e-09 M; at S1P3 (setting [6]) it was 2.32e-06 M. The compound further registered an EC50 at S1P1 [2] of 0.026 µM.
Consider `Cc1ccccc1-c1ccc(-c2nc(-c3cc(F)cc(CN[C@@H](CC(C)C)C(=O)O)c3)no2)cc1C(F)(F)F` [Example 12, N-(3-fluoro-5-{5-[2′-methyl-2-(trifluoromethyl)biphenyl-4-yl]-1,2,4-oxadiazol-3-yl}benzyl)leucine, hydrochloride salt], for which the Ki on S1P1 [1] (setting [4]) was determined as 2.58e-09 M; at S1P3 (setting [6]), 6.43e-07 M. The response at S1P1 [2] was half-maximal at 0.0289 µM (EC50).
As for `Cc1ccccc1-c1ccc(-c2nc(-c3ccc(CN(C)[C@H](C(=O)O)C(C)C)c(F)c3)no2)cc1C(F)(F)F` [Example 13, N-(2-fluoro-4-{5-[2′-methyl-2-(trifluoromethyl)biphenyl-4-yl]-1,2,4-oxadiazol-3-yl}benzyl)-N-methylvaline, hydrochloride salt], the Ki on S1P1 [1] (setting [4]) is 5.23e-09 M; on S1P3 (setting [6]), 1.53e-06 M. In addition, the EC50 at S1P1 [2] was 0.283 µM.
In the same order, the values of `Cc1cc(-c2nc(-c3ccc(C(C)N(C)CC(=O)O)cc3)no2)ccc1-c1ccccc1C(F)(F)F` (stereo not shown) [Example 14, N-methyl-N-[1-(4-{5-[2-methyl-2′-(trifluoromethyl)biphenyl-4-yl]-1,2,4-oxadiazol-3-yl}phenyl)ethyl]glycine, hydrochloride salt] are 4.78e-09 M, above 2e-05 M and 0.0862 µM.
For `COCc1cc(-c2nc(-c3ccc(C(C)N(C)CC(=O)O)cc3)no2)ccc1-c1ccccc1C` (stereo not shown) [Example 15, N-[1-(4-{5-[2-(methoxymethyl)-2′-methylbiphenyl-4-yl]-1,2,4-oxadiazol-3-yl}phenyl)ethyl]-N-methylglycine, hydrochloride salt], in that order: 1.98e-09 M, 5.68e-07 M and 0.0893 µM.
In the same order, the values of `COCc1cc(-c2nc(-c3ccc(CNC(C)(C)C(=O)O)c(F)c3)no2)ccc1-c1ccccc1C` [Example 16, N-(2-fluoro-4-{5-[2-(methoxymethyl)-2′-methylbiphenyl-4-yl]-1,2,4-oxadiazol-3-yl}benzyl)-2-methylalanine, hydrochloride salt] are 1.23e-09 M, 7.2e-07 M and 0.00843 µM.
Turning to `Cc1ccccc1-c1ccc(-c2nc(-c3ccc([C@H](C)N[C@H](C)C(=O)O)cc3)no2)cc1C(F)(F)F` [Example 17, N-[(1S)-1-(4-{5-[2′-methyl-2-(trifluoromethyl)biphenyl-4-yl]-1,2,4-oxadiazol-3-yl}phenyl)ethyl]-D-alanine, hydrochloride salt], the Ki at S1P1 [1] (setting [4]) came to 2.01e-09 M; at S1P3 (setting [6]), 2.25e-06 M. On S1P1 [2], the EC50 was determined as 0.021 µM.
Turning to `Cc1ccccc1-c1ccc(-c2nc(-c3ccc([C@H](C)N[C@@H](C)C(=O)O)cc3)no2)cc1C(F)(F)F` [Example 18, N-[(1S)-1-(4-{5-[2′-methyl-2-(trifluoromethyl)biphenyl-4-yl]-1,2,4-oxadiazol-3-yl}phenyl)ethyl]-L-alanine, hydrochloride salt], the values for the Ki at S1P1 [1] (setting [4]) and at S1P3 (setting [6]) were 1.03e-08 M and 3.65e-06 M, respectively. In addition, the EC50 at S1P1 [2] was found to be 0.116 µM.
In the case of `Cc1ccccc1-c1ccc(-c2nc(-c3ccc([C@@H](C)N[C@@H](C)C(=O)O)cc3)no2)cc1C(F)(F)F` [Example 19, N-[(1R)-1-(4-{5-[2′-methyl-2-(trifluoromethyl)biphenyl-4-yl]-1,2,4-oxadiazol-3-yl}phenyl)ethyl]-L-alanine, hydrochloride salt], the Ki at S1P1 [1] (setting [4]) came to 3.98e-09 M; at S1P3 (setting [6]), 2.56e-06 M. The midpoint of the response on S1P1 [2], the EC50, lay at 0.0456 µM.
Turning to `Cc1ccccc1-c1ccc(-c2nc(-c3ccc([C@@H](C)N[C@H](C)C(=O)O)cc3)no2)cc1C(F)(F)F` [Example 20, N-[(1R)-1-(4-{5-[2′-methyl-2-(trifluoromethyl)biphenyl-4-yl]-1,2,4-oxadiazol-3-yl}phenyl)ethyl]-D-alanine, hydrochloride salt], the Ki worked out at 8.67e-10 M at S1P1 [1] (setting [3]), 1.63e-09 M on S1P1 [1] (setting [4]), 6.83e-06 M at S1P3 (setting [5]) and 2.27e-06 M at S1P3 (setting [6]). The EC50 on S1P1 [2] turned out to be 0.00757 µM.
`Cc1ccccc1-c1ccc(-c2nc(-c3ccc([C@H](C)NCC(=O)O)cc3)no2)cc1C(F)(F)F` [Example 21, N-[(1S)-1-(4-{5-[2′-methyl-2-(trifluoromethyl)biphenyl-4-yl]-1,2,4-oxadiazol-3-yl}phenyl)ethyl]glycine, hydrochloride salt]: the Ki on S1P1 [1] (setting [4]) came out at 2.19e-09 M; on S1P3 (setting [6]), 1.21e-06 M. At S1P1 [2], this compound displayed an EC50 of 0.0112 µM.
